Columns and labels:
[1] = tested on: human coronary artery smooth muscle cells (CASMC); experiment: Transcriptome analysis (cDNA arrays) of treated cultured CASMC; assay type: cell-based; conditions: 1000 U/ml IFN-γ, 16 hours, 37° C.
Description: To adapt the transcriptional profile of cultured human coronary artery smooth muscle cells (CASMC) (Clonetics) to that of neointima, CASMC were stimulated with IFN-g and performed transcriptome analysis as described above. CASMC were cultured as described in the manufacter's manual in growth medium until 50% confluency was reached. Afterwards cells were stimulated with 1000 U/ml IFN-γ (R&D, Germany) for 16 hours at 37° C. Cells were washed twice in PBS and RNA preparation, cDNA synthesis and amplification and transcriptome analysis was performed as described above.
As proliferating CASMC overexpress FKBP12 like neointima, this cell line can be employed as a potential surrogate cell line for neointima in respect to therapeutic effects of rapamycin. Therefore, in a first step, CASMC were incubated with lo0ng/ml rapamycin (Sigma) for 24 hours and transcriptome analysis was performed in order to monitore the therapeutic effect.
Afterwards, microscopic specimen of in-stent restenotic tissue are incubated with rapamycin and transcriptome analysis was performed as described herein above. Transcriptome/gene expression pattern of rapamycin treated CASMC was compared to the transcriptome of rapamycin-treated neointima to measured the effectiveness of CASMC as a surrogate cell line for neointima.

[2] = tested on: primary human coronary smooth muscle cells; experiment: Flow cytometry of apoptosis in cultured SMCs (FITC-Annexin V / PI double staining); assay type: cell-based
Description: The effect of IFNγ on the survival of cultured proliferating SMCs was analyzed by flow cytometry. For this reason primary human coronary smooth muscle cells were obtained from CellSystems (Germany) and were grown in Smooth muscle cell growth medium (CellSystems) containing 5% fetal calf serum (CellSystems) at 37° C. in a humidified atmosphere of 5% CO2. SMCs were used between passages 2 and 4. Treatment with 1000 U/ml rh-IFNγ (R&D Systems) was performed for 16 h. For induction of cell death, SMCs were incubated at 37° C. for 1 h in HBSS containing 100 μmol/l H2O2 and 100 μmol/l ferrous sulfate. Afterwards the cells were further cultured in freshly prepared culture medium for 8 h. Cells were labelled with FITC-labelled Annexin V (Roche Diagnostics) and propidium iodide (PI) according to the manufacturer's instructions. 10^4 events were analyzed with a flow cytometer (Becton Dickinson).

glycoprotein IIb/IIIa = biological target: T1, glycoprotein IIb/IIIa (Homo sapiens, UniProt P05106+P08514); conditions: at 30 days after surgery; versus 10.6%; cited from earlier work
T1 construct: host or cells: patients in clinical trials (endogenous protein)

Substance | gene expression pattern of CASMCs after incubation [1] | spontaneous apoptosis (apoptotic cells) ([2]; SMCs after 1000 U/ml rh-IFNγ for 16 h, untreated 10%) | number of apoptotic cells after induction of apoptosis with H2O2 ([2]; SMCs, 1000 U/ml rh-IFNγ 16 h, then 100 μmol/l H2O2, without IFNγ 54%) | death rate, myocardial infarction and/or target vessel vascularization (glycoprotein IIb/IIIa)
IFNγ: recombinant human interferon γ (R&D Systems), a cytokine mainly produced by T-lymphocytes | neointima-specific IFN-γ gene expression pattern could be generated | 6% | 27% | 
abciximab: monoclonal antibody recognizing glycoprotein IIb/IIIa |  |  |  | 5.3%

From US20040048816A1, “Restenosis treatment” (priority 2000, published 2004)
